Laboratory results published in PMC12521527, “In vivo self-assembled nano-PROTAC for the dual degradation of AR and HSP90 to overcome castration-resistant prostate cancer resistance” (Signal Transduction and Targeted Therapy, 2025).
Numbered stars: 1 amine (or outer) side, 2 acyl side, 3 side chain; on linkers, the order of the positions; unused ones are H or OH. Square brackets hold non-standard residues; d marks the D form. Peptide text beside a SMILES is read from it. * marks the point of attachment. X2 = CC1(C)C(=O)N(c2ccc(C#N)c(C(F)(F)F)c2)C(=S)N1c1ccc(C(=O)*)c(F)c1; X1 = O=C1CCC(N2C(=O)c3cccc(N(CC(=O)[*:2])[*:1])c3C2=O)C(=O)N1; EuK = O=C(O)CC[C@H](NC(=O)N[C@@H](CCCCN*)C(=O)O)C(=O)O; 2Nal = N[C@@H](Cc1ccc2ccccc2c1)C(=O)O

Experiments:
[1] = In vivo biocompatibility in healthy mice; conditions: healthy BALB/c mice
Procedure: Fig. 7 In vivo antitumor efficacy of Psa-AR. a Schematic illustration of the tumor inoculation and treatment protocol for 22Rv1 xenograft mice. (n = 6 per group) b Observation of the tumor inhibitory effect on 22Rv1 xenograft mice in PBS, enzalutamide, pimitespib, Enza, Pimi, and Psa-AR (30 mg/kg in 200 μL of PBS) over 20 days of treatment. (Enza, Pimi: Combination therapy with enzalutamide (AR antagonist) and Pimitespib (HSP90 inhibitor)). c Kaplan‒Meier survival curves of 22Rv1 xenograft mice in different groups over 20 days of treatment. d Changes in the body weights of 22Rv1 xenograft mice in different groups over 20 days of treatment. e Terminal deoxynucleotidyl transferase (TdT) dUTP nick-end labeling (TUNEL) staining of tumors after treatment with PBS, enzalutamide, pimitespib, ENZ, Pimi or Psa-AR (30 mg/kg in 200 μL of PBS) for 20 days. Scale bar: 50 μm. f Hematoxylin‒eosin (H&E) staining of the main organs after treatment with PBS or Psa-AR (30 mg/kg in 200 μL of PBS) for 24 h. Scale bar: 50 μm. g–j Blood biochemistry data, including ALT, AST, ALP, TP, ALB, GLOB, BUN, and CRE levels, of the mice after treatment with Psa-AR (20 mg/kg in 200 μL of PBS) for 1 day or 14 days (n = 3 per group). p values were determined via one-way ANOVA followed by post hoc Tukey’s test. The data are presented as the means ± SDs
To thoroughly evaluate the in vivo biocompatibility of the Psa-AR degradation system, we performed comprehensive toxicological assessments in healthy BALB/c mice. At 24 h post-administration of either PBS or Psa-AR (30 mg/kg, n = 3 per group), we collected major organs (heart, liver, spleen, lungs, and kidneys) along with serum samples for histopathological and biochemical analysis. […] These comprehensive biosafety evaluations confirmed that the Psa-AR system maintains exceptional biocompatibility, with no acute toxicity observed in vital organs or systemic metabolic pathways. The combined histopathological and biochemical evidence strongly supports the clinical translatability of this targeted protein degradation platform.

CRBN protein = CRBN protein (Homo sapiens, UniProt Q96SW2); assay: MST binding affinity, Psa-AR and CRBN protein; conditions: RED-NHS-labeled CRBN 400 nM, PBS-T, 22 °C, n = 3
From the text: (§1) Fig. 3 Polynary nanocomposite (AR: Psa-AR: CRBN) formation. a Dose‒response curve for the binding interaction between Psa-AR and the AR protein; n = 3 per group. b Dose‒response curve for the binding interaction between Psa-AR and the CRBN protein; n = 3 per group. c Dose‒response curve for the binding interaction between the binary complex (Psa-AR: AR) and CRBN, n = 3 per group. d In vitro Psa-AR self-assembly, protein binding and degradation. e Representative 22Rv1 cell CLSM images of FITC-labeled Psa-AR assembly (green channel) interacting with HSP90 (red channel) and its colocalization analysis (1–1’). […] Scale bar: 10 μm.
(§2) MST (NanoTemper Technologies GmbH, Munich, Germany) was utilized to evaluate the binding affinity between Psa-AR and RED-NHS-labeled PSMA, AR, or CRBN proteins. The PSMA, AR, and CRBN proteins were labeled with the Protein Labeling Kit RED-NHS 2nd Generation (Amine Reactive). RED-PSMA, RED-AR, and RED-CRBN proteins were diluted to a final concentration of 400 nM with PBS-T buffer (0.05% Tween 20), where the fluorescence signals satisfied the typical detection limit of the Monolith NT.115 instrument (NanoTemper Technologies). The binding affinity between Psa-AR and the RED-NHS-labeled AR protein was assessed. […] Then, 10 µL of RED-CRBN was added to each sample to achieve a final concentration of 400 nM. […] The data were analyzed by NanoTemper analysis software.

AR = assay: Western blot AR degradation in 22Rv1 (PSMA^KD) cells; format: cell-based; conditions: 20 μM, 48 h
Procedure: All uncropped blots are presented in Supplementary Fig. 26. j, k Representative 22Rv1 cell CLSM images of the degradation of AR after incubation with FITC-labeled Psa-AR for 12 h and quantitative analysis, n = 3 per group. Scale bar: 10 μm. l, m Representative 22Rv1 cell CLSM images of the degradation of HSP90 after incubation with FITC-labeled Psa-AR for 12 h and quantitative analysis, n = 3 per group. Scale bar: 10 μm. n AR-V7 expression in 22Rv1 cells after treatment with PBS, P-AR (20 μM), Psa-AR (20 μM) or Psa-AR (20 μM) combined with MG132 (2 μM) for 48 h, as determined by western blotting. β-Actin was used as an internal reference. o Results of apoptosis in 22Rv1 cells treated with PBS, P-AR (20 μM), or Psa-AR (20 μM) for 48 h, as detected by flow cytometry.
The pretreated cells were resuspended in lysis buffer containing 50 mM Tris-HCl (pH 8.0), 150 mM NaCl, 1% (v/v) Triton X-100, and protease inhibitors. The protein concentration was determined via a BCA kit (Applygen). Each sample ([…]) was subjected to SDS‒PAGE and then transferred to a PVDF membrane. The blots were blocked in 5% (wt/v) blocking buffer. After washing three times with TBST buffer (10 mM TBS solution containing 0.1% (v/v) Tween-20), the blots were incubated with primary antibodies at 4 °C on a shaker for 16 h. […]

[2] = biological target: CRBN, with prebound AR (AR: Psa-AR: CRBN) (Homo sapiens, UniProt P10275+Q96SW2); assay: MST binding of binary complex (Psa-AR: AR) to CRBN; conditions: binary complex Psa-AR: AR titrated against RED-CRBN 400 nM, 20 min incubation, 22 °C, n = 3, read-out: Kd, affinity for CRBN in the presence of prebound AR
From the text: as §1, §2

[3] = TEM of assemblies after PSMA addition; format: physicochemical; conditions: 40 μM, within 0.5 h of PSMA engagement
HSP90 = HSP90 degradation in LNCaP cells; format: cell-based; conditions: time-dependent evaluation
Procedure: The pretreated cells were resuspended in lysis buffer containing 50 mM Tris-HCl (pH 8.0), 150 mM NaCl, 1% (v/v) Triton X-100, and protease inhibitors. The protein concentration was determined via a BCA kit (Applygen). Each sample ([…]) was subjected to SDS‒PAGE and then transferred to a PVDF membrane. The blots were blocked in 5% (wt/v) blocking buffer. After washing three times with TBST buffer (10 mM TBS solution containing 0.1% (v/v) Tween-20), the blots were incubated with primary antibodies at 4 °C on a shaker for 16 h. After washing with TBST buffer three times, the blot was incubated with secondary antibodies at room temperature on a shaker for 2 h. After being washed three times with TBST buffer, the blots were subsequently scanned on a Typhoon Trio Variable Mode Imager.

[4] = Cellular cytotoxicity, LNCaP; format: cell-based; conditions: human, LNCaP cells
22Rv1 cells = format: cell-based; conditions: n = 6, read-out: IC50, cell viability

CRBN protein, sequence (Q96SW2 whole entry): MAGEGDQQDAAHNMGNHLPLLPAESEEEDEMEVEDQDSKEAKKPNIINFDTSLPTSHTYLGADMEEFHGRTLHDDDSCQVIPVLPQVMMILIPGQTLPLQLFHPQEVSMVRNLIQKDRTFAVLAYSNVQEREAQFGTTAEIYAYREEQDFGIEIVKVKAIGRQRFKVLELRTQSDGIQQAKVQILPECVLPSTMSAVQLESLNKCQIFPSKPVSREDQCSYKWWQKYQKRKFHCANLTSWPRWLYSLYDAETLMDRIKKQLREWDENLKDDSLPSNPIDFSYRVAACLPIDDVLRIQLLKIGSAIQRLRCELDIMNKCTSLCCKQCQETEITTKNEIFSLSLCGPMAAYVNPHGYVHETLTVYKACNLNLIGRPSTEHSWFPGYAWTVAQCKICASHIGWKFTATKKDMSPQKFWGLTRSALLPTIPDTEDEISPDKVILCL
CRBN, with prebound AR (AR: Psa-AR: CRBN), sequence (Q96SW2 whole entry): as above
CRBN, with prebound AR (AR: Psa-AR: CRBN), sequence (P10275 whole entry): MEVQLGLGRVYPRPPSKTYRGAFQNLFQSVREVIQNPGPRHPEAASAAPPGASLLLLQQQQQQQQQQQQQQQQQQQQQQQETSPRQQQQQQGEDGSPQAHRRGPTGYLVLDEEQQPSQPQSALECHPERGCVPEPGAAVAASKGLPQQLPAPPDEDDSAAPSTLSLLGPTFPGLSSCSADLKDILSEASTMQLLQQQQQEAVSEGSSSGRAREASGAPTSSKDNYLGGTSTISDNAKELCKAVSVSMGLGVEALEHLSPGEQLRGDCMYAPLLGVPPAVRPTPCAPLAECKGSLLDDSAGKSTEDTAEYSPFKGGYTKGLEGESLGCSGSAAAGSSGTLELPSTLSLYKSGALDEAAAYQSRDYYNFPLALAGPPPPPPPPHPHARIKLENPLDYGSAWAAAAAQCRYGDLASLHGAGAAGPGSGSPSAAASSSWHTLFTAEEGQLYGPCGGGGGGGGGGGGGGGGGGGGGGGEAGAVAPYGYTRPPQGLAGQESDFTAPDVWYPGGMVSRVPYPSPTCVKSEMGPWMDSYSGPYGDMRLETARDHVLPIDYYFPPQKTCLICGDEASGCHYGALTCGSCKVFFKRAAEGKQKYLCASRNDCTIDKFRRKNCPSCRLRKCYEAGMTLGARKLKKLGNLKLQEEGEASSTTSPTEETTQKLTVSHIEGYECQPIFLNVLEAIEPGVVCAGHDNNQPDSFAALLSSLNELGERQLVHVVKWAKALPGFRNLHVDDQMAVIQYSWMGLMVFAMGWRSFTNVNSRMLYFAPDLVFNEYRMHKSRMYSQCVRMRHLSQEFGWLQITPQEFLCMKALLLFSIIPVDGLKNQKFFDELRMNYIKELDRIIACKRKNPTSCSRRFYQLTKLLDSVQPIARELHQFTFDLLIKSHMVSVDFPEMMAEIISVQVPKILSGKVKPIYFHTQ

## CC1(C)C(=O)N(c2ccc(C#N)c(C(F)(F)F)c2)C(=S)N1c1ccc(C(=O)NCCCC[C@H](NC(=O)CNc2cccc3c2C(=O)N(C2CCC(=O)NC2=O)C3=O)C(=O)N[C@@H](CS)C(=O)N[C@@H](CCC(N)=O)C(=O)N[C@@H](Cc2ccc(O)cc2)C(=O)N[C@@H](CC(N)=O)C(=O)N[C@@H](CCC(N)=O)C(=O)N[C@@H](Cc2ccc(O)cc2)C(=O)N[C@@H](Cc2ccc(O)cc2)C(=O)N[C@@H](Cc2ccc3ccccc3c2)C(=O)NCCCC[C@H](NC(=O)N[C@@H](CCC(=O)O)C(=O)O)C(=O)O)c(F)c1 (some centres unmarked) [Psa-AR] (H-[X1]K(X2)CQYNQYY[2Nal]-EuK)
[1]
  routine blood analysis (WBC, NEU, LYM, RBC, PLT, HGB, MPV): no obvious changes were detected
[1]; 30 mg/kg, 24 h, n = 3
  serum biochemistry (ALT, AST, ALP, TP, ALB, GLOB, BUN, CRE) versus PBS: not significantly different between the groups
[1]; 30 mg/kg, 24 h post-administration, n = 3
  H&E histopathology of major organs (heart, liver, spleen, lungs, kidneys): no observable pathological changes
CRBN protein
  Kd: 1.06 µM
other
  FTIR amide I peak with PSMA: 1630 cm⁻¹
AR
  AR protein degradation in PSMA-knockdown cells: failed to induce significant protein degradation
[2]
  Kd: 1.14 µM
[3]
  diameter of spherical nanoparticles: 200–250 nm
HSP90
  HSP90 degradation rate: 70%
[4]
  IC50: 11.1 ± 1.4 µM
22Rv1 cells
  IC50: 10.9 ± 1.1 µM
